Test results reported in publication PMC3758491 (Pesticide biochemistry and physiology, 2013).
Like-named read-outs stand apart in the source and are kept apart here.

How the values were obtained:
murine AChE (mAChE) [1] = biological target: T1, murine AChE (mAChE) (Mus musculus, UniProt P21836); assay: biochemical; assay type: binding
T1 sequence (P21836 32-614): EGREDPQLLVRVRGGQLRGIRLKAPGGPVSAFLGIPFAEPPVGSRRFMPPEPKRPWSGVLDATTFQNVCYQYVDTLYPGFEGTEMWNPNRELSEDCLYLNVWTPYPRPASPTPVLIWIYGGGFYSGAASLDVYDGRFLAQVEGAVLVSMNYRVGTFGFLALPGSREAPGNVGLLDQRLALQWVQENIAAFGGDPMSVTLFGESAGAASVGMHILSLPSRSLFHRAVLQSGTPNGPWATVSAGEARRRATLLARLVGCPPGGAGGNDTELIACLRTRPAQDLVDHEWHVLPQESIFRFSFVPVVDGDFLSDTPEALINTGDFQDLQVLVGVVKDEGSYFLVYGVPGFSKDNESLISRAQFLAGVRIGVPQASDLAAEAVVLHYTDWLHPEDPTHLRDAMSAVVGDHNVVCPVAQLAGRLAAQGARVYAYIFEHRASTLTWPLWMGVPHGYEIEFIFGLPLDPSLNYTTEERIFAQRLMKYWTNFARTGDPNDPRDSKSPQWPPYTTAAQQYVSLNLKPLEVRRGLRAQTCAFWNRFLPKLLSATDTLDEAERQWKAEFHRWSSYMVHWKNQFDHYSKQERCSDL

murine AChE (mAChE) [2] = biological target: T1, murine AChE (mAChE); assay: biochemical
human recombinant AChE = conditions: cited from earlier work
murine AChE (mAChE) [3] = biological target: T1, murine AChE (mAChE); assay: Equilibrium binding of TFT to mAChE
[4] = IC50 values (Mean ± SEM), Reduction of TFT Fluorescence
[5] = IC50 values (Mean ± SEM), Reduction of AChE activity
[6] = read-out: IC50 values (Mean ± SEM), Reduction of TFT Fluorescence, pH 7.4
[7] = read-out: IC50 values (Mean ± SEM), Reduction of AChE activity, pH 7.4

Row | Compound | Ratio = IC50 TFT assay/IC50 Ellman assay (murine AChE (mAChE) [1]) | IC50 (murine AChE (mAChE) [1]; [4]) [nM] | IC50 (murine AChE (mAChE) [2]; [5]) [nM] | other results
1 | COc1cc2c3cc1Oc1cc(ccc1O)C[C@@H]1c4c(cc(OC)c(O)c4Oc4ccc(cc4)C[C@@H]3N(C)CC2)CC[N+]1(C)C [Tubocurarine, d-tubocurarine] | 0.7 | 50000 | 69000 | IC50 (murine AChE (mAChE) [1]; IC50, TFT assay): 50000 to 70000 nM; IC50 (murine AChE (mAChE) [2]; IC50, Ellman assay): 50000 to 70000 nM
2 | CC[N+](C)(C)c1cccc(O)c1 [Edrophonium, edrophonium] | 0.33 | 1120 | 3430 | fold lower IC50 in TFT assay than in Ellman assay (murine AChE (mAChE) [1]): 3 fold; maximum percentage reduction of total TFT fluorescence (murine AChE (mAChE) [1]): around 30%
3 | CC[n+]1c(-c2ccccc2)c2cc(N)ccc2c2ccc(N)cc21 [Ethidium Bromide, ethidium bromide] | 4.1 | 16000 | 4000 | TFT/Ellman IC50 ratio (murine AChE (mAChE) [1]): around four times higher
4 | CNC(=O)Oc1cccc(C(C)(C)C)c1 [Compound 1, 3-tert-butylphenyl methylcarbamate] | 0.4 | 25 | 62 | 
5 | CNC(=O)Oc1ccccc1OC(C)C [Propoxur, propoxur] | 0.13 | 60 | 466 | fold lower IC50 in TFT assay than in Ellman assay (murine AChE (mAChE) [1]): 7.7 fold
6 | Cc1nc(N(C)C)nc(OC(=O)N(C)C)c1C [Pirimicarb, pirimicarb] | 0.6 | 454 | 738 | 
7 | CNC(=O)Oc1cccc2c1OC(C)(C)O2 [Bendiocarb, bendiocarb] | 0.4 | 20 | 46 | 
8 | benzylpiperidine | 0.95 |  |  | maximum percentage reduction of total TFT fluorescence (murine AChE (mAChE) [1]): around 30%; IC50 (murine AChE (mAChE) [1]; [6]): 159000 nM; IC50 (murine AChE (mAChE) [1]; read-out: potency (IC50) for reducing thioflavin-T fluorescence): 159000 nM; IC50 (murine AChE (mAChE) [2]; [7]): 167000 nM
9 | C=CC[N+](C)(C)c1ccc(CCC(=O)CCc2ccc([N+](C)(C)CC=C)cc2)cc1.[Br-].[Br-] [BW284C51, BW284c51] | 1.9 |  |  | IC50 (murine AChE (mAChE) [1]; [6]): 8.3 nM; IC50 (murine AChE (mAChE) [2]; [7]): 4.4 nM
10 | CNC(=O)O/N=C/C(C)(C)SC [Aldicarb, aldicarb] | 0.9 | 565 | 645 | 
11 | Cc1ccc2c(c1)sc(-c1ccc(N(C)C)cc1)[n+]2C [TFT, thioflavin-T] |  |  |  | Kd (human recombinant AChE; read-out: Kd of TFT, ref De Ferrari et al. [17]): 890 nM; Kd (human recombinant AChE; read-out: Kd of TFT, ref Sultatos and Kaushik [13]): 360 nM; Kd (murine AChE (mAChE) [3]): 1400 ± 200 nM; increase of TFT fluorescence in the presence of mAChE over free solution (murine AChE (mAChE) [3]; 10 uM TFT): 1.96 fold; Bmax, maximum specific TFT fluorescence in the presence of mAChE (murine AChE (mAChE) [3]; mean ± SEM, n = 7): 562 ± 23 fluorescent units
12 | CC[N+](C)(CC)CCC[n+]1c(-c2ccccc2)c2cc(N)ccc2c2ccc(N)cc21 [Propidium Iodide, propidium iodide] | 1.0 | 670 | 662 | TFT fluorescence remaining after adding propidium iodide (murine AChE (mAChE) [1]): 0%; IC50 (murine AChE (mAChE) [1]; IC50, TFT assay): 700 nM; IC50 (murine AChE (mAChE) [2]; IC50, Ellman assay): 700 nM
13 | CCC(C)CSc1ccccc1OC(=O)NC (stereo not shown) [Compound 2, 2-(2-methylbutylthio)phenyl methylcarbamate] | 0.9 | 8900 | 10300 | 
